One test concerns MMP-2. The test is described as follows: Zymography of MMP-2 from pre-treated SW1353 cells. It is filed as cell-based, human. Conditions: PMA-pre-treated SW1353; 0.1 μM, 24 h. How it is done: (§1) At the beginning of the experiment, the cells were pre-treated with 100 ng/mL PMA or 10 ng/mL IL-1β for 24 hours. The cells were then treated with 0.1 μM Dexamethasone, various astragaloside compounds (0.1 μM) or extracts of Astragalus membranaceous (1 μg/mL) at indicated dosages for another 24 hours. For control sample, 0.1% DMSO was used as a negative control for these experiments. The conditioned culture mediums were then centrifuged, 2-fold concentrated and collected for assay of collagens or MMPs secreted into the culture medium.
(§2) The proteolytic activities of MMPs from SW1353 cells were measured essentially as described previously (Circ Res, 1999; 85:906-911). The cells were lysed in lysis buffer (1% Triton X-100, 50 mM Tris-Cl, pH 7.4, 180 mM NaCl, 1 mM EDTA). The samples were measured for their protein concentration using the bicinchoninic acid (BCA) protein assay kit as described. Samples of concentrated conditioned medium and cell lysates were mixed with non-reducing electrophoresis loading buffer and subjected to electrophoresis under non-reducing conditions. The electrophoresis was carried out on a 10% SDS-PAGE co-polymerized with 2 mg/mL gelatin or casein (Sigma, St. Louis, Mo. USA). For zymographic analysis of pro-MMP-2 and activated MMP-2, the total 20 μg of culture medium were used for electrophoresis. Following electrophoresis, renaturation of the proteins was achieved by incubating the gels twice in 25 g/L Triton X-100 at room temperature for 10 min. Subsequently the gels were incubated in 50 mM Tris-HCl, pH 7.5 containing 0.2 M NaCl, 0.02% Brij35 and 10 mM CaCl2 at 37° C. for 18 hours. After the gels were stained with Coomassie Brilliant Blue R-250 and destained, zones of proteolytic activities became visible as transparent bands in the stained gel. In order to obtain higher sensitivity, the gels were further destained in a solution of 1% Triton X-100 (1 to 2 hours). This procedure increased the signal-to-noise ratio, allowing the visualization of faint gelatinase bands at 92 kDa, 125 kDa and greater than 200 kDa. Zymograms were read using a Molecular Dynamics (Sunnyvale, Calif., USA) computing laser densitometer with Image Quant software.

The test system of the next test is MMP1. Briefly: Western blotting of MMP1 protein expression induced by IL-1β, PMA or TNF-α in SW1353 cells (Example 3). It counts as cell-based, human. Conditions: AS4 0.01, 0.1 or 1 μM; PMA 100 ng/mL, IL-1β 10 ng/mL, TNF-α 10 ng/mL, 24 h. How it is done: Western blotting analysis was carried out based on the following procedure. Cells were washed and lysed in 0.2 mL of lysis buffer (1% NP-40, 50 mM Tris-HCl, pH 7.4, 180 mM NaCl, 1 mM EDTA, 1 mM PMSF, 1 mM NaF, 10 mM Na3VO4) for 30 min at 4° C. After centrifugation at 17500 g for 15 min, the supernatants of cell lysate were collected. Protein concentrations of the samples were measured using the bicinchoninic acid (BCA) protein assay kit according to the manufacturer's protocol (Pierce, Rockford, Ill., USA). Equal amounts of protein samples of concentrated conditioned medium (100 μg) or cell lysate supernatants (50 μg) were mixed with an appropriate volume of 4×SDS sampling buffer and separated on a 8% SDS-PAGE gel. The protein bands separated on the SDS-PAGE gel were blotted onto a polyvinylidene fluoride (PVDF) membrane. The blotted PVDF membrane was washed twice and blocked in freshly prepared Tris-buffered saline (TBS) containing 0.1% Tween-20 and 7% skim milk (TBST) for 2 hours at room temperature. The PVDF membrane was then incubated with a primary antibody against MMP1 protein (Santa Cruz Biotechnology, Santa Cruz, Calif.) for 18 hours at 4° C. Horseradish peroxidase-conjugated anti-goat antibody was used as the secondary antibody. Signals were visualized by an enhanced chemiluminescence kit (Clonetech, Palo Alto, Calif., USA) followed by exposure to X-ray films. […]

The test system of the next test is MMP-9. The test is described as follows: Zymography of MMP-9 from pre-treated SW1353 cells. It counts as cell-based, human. The conditions noted are these: PMA-pre-treated SW1353; 0.1 μM, 24 h. How it is done:
as §1, §2

Another test concerns Type II Collagen. The test is described as follows: Western blot of Type II Collagen in pre-treated human chondrocytes (HCHs). It counts as cell-based. Conditions: IL-1β-pre-treated HCH culture medium; compounds 0.1 μM, 48 h.

In the case of `CC(C)(O)[C@@H]1CC[C@](C)([C@H]2[C@@H](O)C[C@@]3(C)[C@@H]4C[C@H](O[C@@H]5O[C@H](CO)[C@@H](O)[C@H](O)[C@H]5O)[C@H]5C(C)(C)[C@@H](O[C@@H]6OC[C@@H](O)[C@H](O)[C@H]6O)CC[C@@]56C[C@@]46CC[C@]23C)O1` [AS4, Astragaloside IV], in the test with MMP-2, the “MMP-2, Zymography, relative to Ctrl 1.00” value is reported as 1.01. Also, the “level of expression of MMP1 protein with different inducers” value in the test with MMP1 was “inhibited”. Also, the “MMP-9, Zymography, relative to Ctrl 1.00” value with MMP-9 was 1.04. Moreover, the “Type II Collagen, Western blot, relative to Ctrl 1.00” value in the test with Type II Collagen stood at 1.16.

(Values after patent US8168596B2, “Use of cycloartane compounds for treating arthritis” (NuLiv Holding Inc., priority 2008, dated 2012).)
